Among the data in patent US20230113037A1 (Bayer Aktiengesellschaft, priority 2019, published 2023) are IC50 values, retold here.

Where two headings read alike, the source gives them in different places.

By IC50 is commonly meant the concentration that inhibits the measured activity by half.

The target of test [1] is T1, AHR (Mus musculus, UniProt P30561).
T1 sequence (P30561 1-848 P471L/N533S/M589L): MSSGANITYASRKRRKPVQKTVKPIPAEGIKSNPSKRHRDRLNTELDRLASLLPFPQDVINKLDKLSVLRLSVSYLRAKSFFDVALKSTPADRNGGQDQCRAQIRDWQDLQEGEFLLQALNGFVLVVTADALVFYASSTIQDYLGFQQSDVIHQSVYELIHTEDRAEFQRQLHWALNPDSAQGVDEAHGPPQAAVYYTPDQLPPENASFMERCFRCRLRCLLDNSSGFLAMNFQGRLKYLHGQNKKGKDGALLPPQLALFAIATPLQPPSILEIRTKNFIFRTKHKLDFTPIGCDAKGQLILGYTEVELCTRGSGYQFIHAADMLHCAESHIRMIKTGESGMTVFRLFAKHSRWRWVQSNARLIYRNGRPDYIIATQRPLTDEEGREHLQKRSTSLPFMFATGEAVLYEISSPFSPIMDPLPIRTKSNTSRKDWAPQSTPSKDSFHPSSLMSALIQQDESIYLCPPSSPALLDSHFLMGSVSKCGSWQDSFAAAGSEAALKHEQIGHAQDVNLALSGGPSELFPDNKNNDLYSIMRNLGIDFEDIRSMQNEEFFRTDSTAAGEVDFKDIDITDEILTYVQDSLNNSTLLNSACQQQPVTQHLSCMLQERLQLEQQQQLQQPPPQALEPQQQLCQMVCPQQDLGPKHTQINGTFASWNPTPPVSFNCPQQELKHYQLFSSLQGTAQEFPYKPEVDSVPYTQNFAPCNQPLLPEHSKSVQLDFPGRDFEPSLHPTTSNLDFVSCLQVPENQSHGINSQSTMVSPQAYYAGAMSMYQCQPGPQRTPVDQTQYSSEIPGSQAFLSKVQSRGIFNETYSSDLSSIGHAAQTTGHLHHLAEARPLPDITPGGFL
The test can be described thus: In vitro assay 3: antagonism in mouse cell line (AHR transactivation, firefly luciferase reporter, kynurenic acid prestimulated). In kind it is cell-based. The essentials:
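Mouse cells stably carrying a DRE-driven, AHR-inducible firefly luciferase reporter were prestimulated with the endogenous agonist kynurenic acid before compound addition. Luciferase activity was measured by luminescence and normalized to positive and negative controls, with cells lacking kynurenic acid serving as full-inhibition control. Repeat tests are reported as mean or median.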
Background: A reporter such as luciferase makes a cellular process visible.

Test [2] has as its target T2, AHR (Homo sapiens, UniProt P35869).
T2 construct: U87 MG glioblastoma cells (ATCC #HTB-14) endogenously expressing AHR; endogenous in cells; host or cells: U87 MG glioblastoma cells (ATCC #HTB-14)
T2 sequence (P35869 11-848): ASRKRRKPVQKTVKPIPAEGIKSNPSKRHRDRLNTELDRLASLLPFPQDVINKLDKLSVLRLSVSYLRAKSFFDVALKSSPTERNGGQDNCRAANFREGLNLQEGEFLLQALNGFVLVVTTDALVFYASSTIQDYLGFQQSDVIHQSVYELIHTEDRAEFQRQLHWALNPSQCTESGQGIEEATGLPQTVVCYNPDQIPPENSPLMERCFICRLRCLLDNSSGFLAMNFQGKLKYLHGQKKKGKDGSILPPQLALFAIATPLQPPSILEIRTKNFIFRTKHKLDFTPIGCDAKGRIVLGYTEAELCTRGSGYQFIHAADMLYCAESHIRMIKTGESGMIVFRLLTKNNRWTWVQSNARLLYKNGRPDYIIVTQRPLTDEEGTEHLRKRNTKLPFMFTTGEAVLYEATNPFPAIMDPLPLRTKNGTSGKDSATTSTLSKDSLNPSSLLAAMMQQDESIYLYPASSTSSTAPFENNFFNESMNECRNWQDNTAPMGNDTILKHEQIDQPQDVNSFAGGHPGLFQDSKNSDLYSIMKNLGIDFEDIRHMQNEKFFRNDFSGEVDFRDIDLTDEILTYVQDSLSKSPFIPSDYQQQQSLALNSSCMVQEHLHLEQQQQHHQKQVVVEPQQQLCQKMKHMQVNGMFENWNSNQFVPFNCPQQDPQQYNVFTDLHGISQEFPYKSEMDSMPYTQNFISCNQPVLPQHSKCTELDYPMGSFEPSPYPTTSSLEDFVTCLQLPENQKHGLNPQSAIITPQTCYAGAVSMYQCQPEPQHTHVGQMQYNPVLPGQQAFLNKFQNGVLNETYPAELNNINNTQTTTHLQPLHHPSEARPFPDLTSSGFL
The test can be described thus: In vitro assay 1: antagonism in human cell line (AHR transactivation, firefly luciferase reporter, kynurenic acid prestimulated). In kind it is cell-based. Particulars: AHR Antagonism Human IC50 [M]. Put shortly:
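U87 MG + DRE-firefly/constitutive-Renilla stable reporters; kynurenic acid prestim; dual-luc read; Renilla = tox; normalized vs pos/neg controls (pos: 150 μM KYNA + 5 μM staurosporine).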

Where [3] appears, read: mouse Hepa 1c1c7 cells, 200 μM kynurenic acid, 20 hours, read-out: AHR Antagonism Mouse IC50.
[4] abbreviates: Hepa 1c1c7 cells, 200 μM kynurenic acid, 20 hours, firefly luciferase reporter, read-out: AHR Antagonism Mouse IC50.

As for `CC[C@@H](Nc1nc2ccccc2c2nc(-c3cccc(S(C)(=O)=O)c3)nn12)C(N)=O` [Example 378, (2R)-2-({2-[3-(methanesulfonyl)phenyl][1,2,4]triazolo[1,5-c]quinazolin-5-yl}amino)butanamide], the 50% inhibitory concentration (IC50) in test [1] (setting [3]) is 171 nM; in test [2], 6.25e-07 M.
With `O=C1NCCCC[C@@H]1Nc1nc2ccccc2c2nc(-c3ccc(Br)cc3OC(F)(F)F)nn12` [Example 682, (3S)-3-({2-[4-bromo-2-(trifluoromethoxy)phenyl][1,2,4]triazolo[1,5-c]quinazolin-5-yl}amino)azepan-2-one], the concentration for half-maximal inhibition (IC50) was determined as 6.82 nM in test [1] (setting [3]) and 7.43e-08 M in test [2].
The matching figures for `CC(C)c1cccc2c1nc(N[C@@H]1CCCCNC1=O)n1nc(-c3cccc(F)c3)nc21` [Example 394, (3R)-3-{[2-(3-Fluorophenyl)-7-(propan-2-yl)[1,2,4]triazolo[1,5-c]quinazolin-5-yl]amino}azepan-2-one]: 30.9 nM and 1.16e-08 M.
The matching figures for `O=C1NCCCC[C@H]1Nc1nc2ccccc2c2nc(-c3ccc(OC4CC4)cc3)nn12` [Example 612, (3R)-3-({2-[4-(cyclopropyloxy)phenyl][1,2,4]triazolo[1,5-c]quinazolin-5-yl}amino)azepan-2-one]: 1.23 nM and 1.32e-09 M.
Turning to `O=C1NCCC[C@H]1Nc1nc2ccccc2c2nc(-c3ccccc3OC(F)(F)F)nn12` [Example 458, (3R)-3-({2-[2-(trifluoromethoxy)phenyl][1,2,4]triazolo[1,5-c]quinazolin-5-yl}amino)piperidin-2-one], the concentration for half-maximal inhibition (IC50) in test [1] (setting [3]) worked out at 28 nM; in test [2] it was 6.37e-08 M.
The matching figures for `CC(C)[C@@H](Nc1nc2ccccc2c2nc(-c3ccccc3)nn12)C(N)=O` [Example 3, N^2-(2-phenyl[1,2,4]triazolo[1,5-c]quinazolin-5-yl)-D-valinamide]: 0.428 nM and 1.82e-09 M.
Regarding `O=C1NCCCC[C@H]1Nc1nc2c(Br)cccc2c2nc(-c3cnn(C4CCC4)c3)nn12` [Example 824, (3R)-3-{[7-bromo-2-(1-cyclobutyl-1H-pyrazol-4-yl)[1,2,4]triazolo[1,5-c]quinazolin-5-yl]amino}azepan-2-one], the half-inhibitory concentration (IC50) stood at 0.845 nM in test [1] (setting [4]) and 9.98e-10 M in test [2] (firefly luciferase reporter).
Regarding `CC[C@@H](Nc1nc2ccccc2c2nc(-c3ccsc3C)nn12)C(N)=O` [Example 351], the values for the 50% inhibitory concentration (IC50) in test [1] (setting [3]) and in test [2] were 0.125 nM and 1.37e-09 M, respectively.
The matching figures for `O=C1NCCCC[C@@H]1Nc1nc2ccccc2c2nc(-c3cc(F)ccc3OC(F)(F)F)nn12` [Example 493, (3S)-3-({2-[5-fluoro-2-(trifluoromethoxy)phenyl][1,2,4]triazolo[1,5-c]quinazolin-5-yl}amino)azepan-2-one]: 36.9 nM and over 2e-05 M.
The matching figures for `Cn1cc(-c2nc3c4cc(Cl)ccc4nc(N[C@@H]4CCCCNC4=O)n3n2)cn1` [Example 236, (3R)-3-{[9-chloro-2-(1-methyl-1H-pyrazol-4-yl)[1,2,4]triazolo[1,5-c]quinazolin-5-yl]amino}azepan-2-one]: 21.2 nM and 2.62e-08 M.
Taken in the same sequence, the figures for `CS(=N)(=O)c1ccc(-c2nc3c4ccccc4nc(N[C@@H]4CCCCNC4=O)n3n2)cc1` (single isomer, unassigned) [Example 308] were 18.6 nM and 1.1e-07 M.
Take `Cc1cc(-c2nc3c4ccccc4nc(N[C@@H]4CCCCNC4=O)n3n2)n[nH]1` [Example 64, (3R)-3-{[2-(5-methyl-1H-pyrazol-3-yl)[1,2,4]triazolo[1,5-c]quinazolin-5-yl]amino}azepan-2-one]: the IC50 was determined as 85 nM in test [1] (setting [3]) and 6.33e-08 M in test [2].
Consider `COc1ccc(-c2nc3c4ccccc4nc(N[C@H](C)C(=O)NC4CCCCC4)n3n2)cc1` [Example 665, N-cyclohexyl-N2-[2-(4-methoxyphenyl)[1,2,4]triazolo[1,5-c]quinazolin-5-yl]-D-alaninamide], for which the half-maximal inhibitory concentration (IC50) was 11.3 nM in test [1] (read-out: AHR Antagonism Mouse IC50, mouse Hepa 1c1c7 cells, 200 μM kynurenic acid, 20 hours) and 1.87e-08 M in test [2].
For the compound `Cn1cc(-c2nc3c4cccc(S(C)(=O)=O)c4nc(N[C@@H]4CCCCNC4=O)n3n2)cn1` [Example 858, (3R)-3-{[7-(methanesulfonyl)-2-(1-methyl-1H-pyrazol-4-yl)[1,2,4]triazolo[1,5-c]quinazolin-5-yl]amino}azepan-2-one], the IC50 came to 1560 nM in test [1] (setting [4]) and 1.07e-07 M in test [2] (firefly luciferase reporter).
`COc1ccc(-c2nc3c4ccc(C#N)cc4nc(N[C@@H]4CCCCNC4=O)n3n2)cc1` [Example 400, 2-(4-Methoxyphenyl)-5-{[(3R)-2-oxoazepan-3-yl]amino}[1,2,4]triazolo[1,5-c]quinazoline-8-carbonitrile]: the figures for the IC50 in test [1] (setting [3]) and in test [2] were 119 nM and 4.16e-08 M, respectively.
The matching figures for `Cn1cc(-c2nc3c4c(C(F)(F)F)cccc4nc(N[C@@H]4CNCCNC4=O)n3n2)cn1` [Example 286, (6R)-6-{[2-(1-methyl-1H-pyrazol-4-yl)-10-(trifluoromethyl)[1,2,4]triazolo[1,5-c]quinazolin-5-yl]amino}-1,4-diazepan-5-one]: 3350 nM and 2.78e-06 M.
The matching figures for `COc1cccc(-c2nc3c4ccccc4nc(NC4CNCCNC4=O)n3n2)c1` (stereo not drawn) [Example 115, 6-{[2-(3-methoxyphenyl)[1,2,4]triazolo[1,5-c]quinazolin-5-yl]amino}-1,4-diazepan-5-one]: 68 nM and 1.11e-06 M.
Consider `Cc1cc(C(F)F)c2nc(N[C@@H]3CCCCNC3=O)n3nc(-c4cnn(C)c4)nc3c2c1` [Example 406, (3R)-3-{[7-(difluoromethyl)-9-methyl-2-(1-methyl-1H-pyrazol-4-yl)[1,2,4]triazolo[1,5-c]quinazolin-5-yl]amino}azepan-2-one], for which the concentration for half-maximal inhibition (IC50) turned out to be 7750 nM in test [1] (setting [3]) and 1.01e-07 M in test [2].
The matching figures for `Cn1cc(-c2nc3c4ccccc4nc(NC4CCCNC4=O)n3n2)cn1` (single isomer, unassigned) [Example 20, 3-{[2-(1-methyl-1H-pyrazol-4-yl)[1,2,4]triazolo[1,5-c]quinazolin-5-yl]amino}piperidin-2-one]: 2210 nM and 1.24e-06 M.
Take `CC(C)n1cc(-c2nc3c4cccc(Br)c4nc(N[C@@H]4CNCCNC4=O)n3n2)cn1` [Example 981, (6R)-6-({7-bromo-2-[1-(propan-2-yl)-1H-pyrazol-4-yl][1,2,4]triazolo[1,5-c]quinazolin-5-yl}amino)-1,4-diazepan-5-one]: the half-inhibitory concentration (IC50) in test [1] (setting [4]) was found to be 5.95 nM; in test [2] (firefly luciferase reporter), 2.69e-09 M.
For `O=C1NCCCC[C@H]1Nc1nc2ccccc2c2nc(-c3cnn(CC4CCC4)c3)nn12` [Example 597, (3R)-3-({2-[1-(cyclobutylmethyl)-1H-pyrazol-4-yl][1,2,4]triazolo[1,5-c]quinazolin-5-yl}amino)azepan-2-one], the IC50 in test [1] (setting [3]) was determined as 7.57 nM; in test [2] it was 1.16e-08 M.
